Source: patent publication US10392368B2, “Pyrazolo and triazolo bicyclic compounds as JAK kinase inhibitors” (THERAVANCE BIOPHARMA R&D IP, LLC, priority 2017, dated 2019)
Where two headings read alike, the source gives them in different places.

What was measured:
[1] = target: T1, JAK3 (Homo sapiens, UniProt P52333); experiment: Biochemical JAK3 kinase assay (LanthaScreen); parameters: GST; purchased Life Technologies; details: for Ki: read-out: JAK 3 (pKi) (converted)
T1 sequence (P52333 1-1124): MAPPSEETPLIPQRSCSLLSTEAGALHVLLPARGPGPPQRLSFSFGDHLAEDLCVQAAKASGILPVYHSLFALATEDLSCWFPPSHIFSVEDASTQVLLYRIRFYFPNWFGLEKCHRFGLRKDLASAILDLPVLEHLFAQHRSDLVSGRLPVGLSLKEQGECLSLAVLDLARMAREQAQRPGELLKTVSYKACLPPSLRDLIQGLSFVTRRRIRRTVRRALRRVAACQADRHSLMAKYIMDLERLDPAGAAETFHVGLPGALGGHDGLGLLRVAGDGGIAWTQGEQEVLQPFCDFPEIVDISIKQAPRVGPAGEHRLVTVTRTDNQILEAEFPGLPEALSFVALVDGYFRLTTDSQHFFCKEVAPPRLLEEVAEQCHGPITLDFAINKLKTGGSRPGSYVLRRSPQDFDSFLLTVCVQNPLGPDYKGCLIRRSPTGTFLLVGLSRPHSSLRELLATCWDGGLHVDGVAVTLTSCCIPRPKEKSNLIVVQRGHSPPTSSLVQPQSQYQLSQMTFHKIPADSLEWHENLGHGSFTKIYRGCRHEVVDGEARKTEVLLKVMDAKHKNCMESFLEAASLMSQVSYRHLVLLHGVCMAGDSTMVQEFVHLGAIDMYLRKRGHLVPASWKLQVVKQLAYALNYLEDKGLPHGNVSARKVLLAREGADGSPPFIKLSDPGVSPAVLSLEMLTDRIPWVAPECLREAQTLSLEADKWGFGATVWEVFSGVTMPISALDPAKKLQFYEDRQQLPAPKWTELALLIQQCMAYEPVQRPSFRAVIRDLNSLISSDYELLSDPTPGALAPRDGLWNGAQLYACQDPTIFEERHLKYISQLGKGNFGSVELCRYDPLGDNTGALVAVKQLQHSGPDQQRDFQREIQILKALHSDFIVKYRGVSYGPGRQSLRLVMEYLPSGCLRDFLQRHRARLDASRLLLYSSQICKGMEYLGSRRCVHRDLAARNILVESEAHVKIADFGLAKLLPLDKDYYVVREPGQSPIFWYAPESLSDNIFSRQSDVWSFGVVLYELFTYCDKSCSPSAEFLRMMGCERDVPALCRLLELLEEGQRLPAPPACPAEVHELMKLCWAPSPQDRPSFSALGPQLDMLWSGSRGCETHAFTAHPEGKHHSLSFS
How it was run: (§1)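 Values are pKi, calculated by Cheng-Prusoff from IC50 obtained by robust 4-parameter fitting of percent inhibition. The kinase reaction used GFP-STAT1 peptide in HEPES pH 7.5 buffer with MgCl2, EGTA and Brij-35, ATP-initiated after compound pre-incubation, 1 h at ambient temperature.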

[2] = test system: IL-2 stimulated pSTAT5 in Tall-1 T cells; experiment: Cellular JAK3 potency assay: inhibition of IL-2 stimulated pSTAT5 in Tall-1 T cells; format: cell-based, human; details: for IC50: Homo sapiens, read-out: Tall-1 (pIC50) (converted)
How it was run: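 In human Tall-1 T cells, IL-2 (300 ng/ml final, 30 min) drives STAT5 phosphorylation after a 1 h compound pretreatment. Lysates are assayed for pSTAT5 by AlphaLisa, and IC50 derived from signal versus concentration is expressed as pIC50.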

[3] = target: T2, Tyk2 (Homo sapiens, UniProt P29597); experiment: Biochemical Tyk2 kinase assay (LanthaScreen); details: for Ki: read-out: Tyk 2 (pKi) (converted)
T2 construct: GST; purchased Life Technologies
T2 sequence (P29597 whole entry): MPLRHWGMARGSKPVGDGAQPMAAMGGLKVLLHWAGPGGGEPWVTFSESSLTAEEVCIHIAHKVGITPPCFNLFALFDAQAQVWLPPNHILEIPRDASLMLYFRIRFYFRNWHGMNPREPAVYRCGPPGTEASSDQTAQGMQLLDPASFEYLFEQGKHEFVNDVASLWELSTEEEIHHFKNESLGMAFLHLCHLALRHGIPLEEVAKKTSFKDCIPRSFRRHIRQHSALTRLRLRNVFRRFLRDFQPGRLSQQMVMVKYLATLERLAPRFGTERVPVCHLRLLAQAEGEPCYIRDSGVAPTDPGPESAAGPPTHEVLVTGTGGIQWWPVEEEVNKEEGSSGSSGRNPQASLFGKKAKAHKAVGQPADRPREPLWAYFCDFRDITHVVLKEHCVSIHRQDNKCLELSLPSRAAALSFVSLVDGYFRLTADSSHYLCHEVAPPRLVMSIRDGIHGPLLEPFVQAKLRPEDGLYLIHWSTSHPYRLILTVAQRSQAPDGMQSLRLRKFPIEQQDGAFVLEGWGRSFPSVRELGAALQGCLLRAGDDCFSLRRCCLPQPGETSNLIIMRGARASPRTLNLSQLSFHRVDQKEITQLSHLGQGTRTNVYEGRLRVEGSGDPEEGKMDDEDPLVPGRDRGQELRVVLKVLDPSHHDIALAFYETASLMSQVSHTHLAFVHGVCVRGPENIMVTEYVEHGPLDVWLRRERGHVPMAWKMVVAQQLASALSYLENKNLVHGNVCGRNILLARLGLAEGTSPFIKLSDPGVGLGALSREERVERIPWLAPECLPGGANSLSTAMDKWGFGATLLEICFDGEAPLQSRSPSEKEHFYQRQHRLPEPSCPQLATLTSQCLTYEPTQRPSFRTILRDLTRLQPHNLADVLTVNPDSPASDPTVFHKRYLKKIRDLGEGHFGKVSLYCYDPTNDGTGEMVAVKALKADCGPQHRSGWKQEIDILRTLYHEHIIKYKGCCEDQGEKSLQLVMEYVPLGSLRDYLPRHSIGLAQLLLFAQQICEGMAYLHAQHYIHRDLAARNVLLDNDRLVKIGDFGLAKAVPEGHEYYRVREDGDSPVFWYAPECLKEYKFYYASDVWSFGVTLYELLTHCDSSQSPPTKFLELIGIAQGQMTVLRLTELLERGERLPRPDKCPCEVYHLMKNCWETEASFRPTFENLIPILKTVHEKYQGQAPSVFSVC
How it was run: as §1

[4] = target: T3, JAK2 (Homo sapiens, UniProt O60674); experiment: Biochemical JAK2 kinase assay (LanthaScreen); details: for Ki: read-out: JAK 2 (pKi) (converted)
T3 construct: GST; purchased Life Technologies
T3 sequence (O60674 whole entry): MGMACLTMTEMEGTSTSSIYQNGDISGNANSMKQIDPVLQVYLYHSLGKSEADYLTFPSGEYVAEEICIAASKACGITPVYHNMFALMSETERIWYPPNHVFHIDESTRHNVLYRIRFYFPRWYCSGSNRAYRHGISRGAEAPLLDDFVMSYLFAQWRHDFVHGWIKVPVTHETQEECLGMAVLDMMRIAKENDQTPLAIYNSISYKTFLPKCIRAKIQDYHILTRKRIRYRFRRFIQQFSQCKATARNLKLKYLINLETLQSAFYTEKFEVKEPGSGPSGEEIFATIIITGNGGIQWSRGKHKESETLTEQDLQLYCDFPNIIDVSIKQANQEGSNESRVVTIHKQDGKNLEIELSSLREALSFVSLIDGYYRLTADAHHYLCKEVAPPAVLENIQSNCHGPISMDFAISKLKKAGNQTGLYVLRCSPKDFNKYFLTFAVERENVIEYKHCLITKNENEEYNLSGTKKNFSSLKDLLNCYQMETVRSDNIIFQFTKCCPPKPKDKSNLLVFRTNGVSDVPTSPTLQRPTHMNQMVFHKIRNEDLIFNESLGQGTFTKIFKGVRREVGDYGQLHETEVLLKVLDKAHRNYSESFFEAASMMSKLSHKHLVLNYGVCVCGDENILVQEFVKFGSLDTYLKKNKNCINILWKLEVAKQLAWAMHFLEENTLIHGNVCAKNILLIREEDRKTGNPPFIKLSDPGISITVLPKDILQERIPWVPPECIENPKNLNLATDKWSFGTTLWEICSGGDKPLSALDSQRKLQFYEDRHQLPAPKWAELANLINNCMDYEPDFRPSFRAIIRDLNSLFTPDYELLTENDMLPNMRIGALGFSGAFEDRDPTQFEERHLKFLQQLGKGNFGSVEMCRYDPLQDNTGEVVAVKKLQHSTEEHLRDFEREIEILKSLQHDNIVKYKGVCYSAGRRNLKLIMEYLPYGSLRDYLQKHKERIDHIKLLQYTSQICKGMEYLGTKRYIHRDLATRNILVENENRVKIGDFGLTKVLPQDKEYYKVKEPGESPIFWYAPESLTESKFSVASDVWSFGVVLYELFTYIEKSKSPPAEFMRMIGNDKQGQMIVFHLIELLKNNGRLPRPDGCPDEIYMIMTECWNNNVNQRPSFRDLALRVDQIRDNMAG
How it was run: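 GST-tagged recombinant JAK2 pre-incubated 1 h at ambient temperature with compound and GFP-STAT1 peptide in HEPES pH 7.5/MgCl2 buffer, then ATP added for a 1 h reaction with 1% DMSO. TR-FRET read after EDTA and Tb-anti-pSTAT1 (pTyr701) addition; IC50 from 4-parameter fit, converted to pKi by Cheng-Prusoff.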

[5] = target: T4, JAK1 (Homo sapiens, UniProt P23458); experiment: Biochemical JAK1 kinase assay (LanthaScreen); details: for Ki: read-out: JAK 1 (pKi) (converted)
T4 construct: GST; purchased Life Technologies
T4 sequence (P23458 whole entry): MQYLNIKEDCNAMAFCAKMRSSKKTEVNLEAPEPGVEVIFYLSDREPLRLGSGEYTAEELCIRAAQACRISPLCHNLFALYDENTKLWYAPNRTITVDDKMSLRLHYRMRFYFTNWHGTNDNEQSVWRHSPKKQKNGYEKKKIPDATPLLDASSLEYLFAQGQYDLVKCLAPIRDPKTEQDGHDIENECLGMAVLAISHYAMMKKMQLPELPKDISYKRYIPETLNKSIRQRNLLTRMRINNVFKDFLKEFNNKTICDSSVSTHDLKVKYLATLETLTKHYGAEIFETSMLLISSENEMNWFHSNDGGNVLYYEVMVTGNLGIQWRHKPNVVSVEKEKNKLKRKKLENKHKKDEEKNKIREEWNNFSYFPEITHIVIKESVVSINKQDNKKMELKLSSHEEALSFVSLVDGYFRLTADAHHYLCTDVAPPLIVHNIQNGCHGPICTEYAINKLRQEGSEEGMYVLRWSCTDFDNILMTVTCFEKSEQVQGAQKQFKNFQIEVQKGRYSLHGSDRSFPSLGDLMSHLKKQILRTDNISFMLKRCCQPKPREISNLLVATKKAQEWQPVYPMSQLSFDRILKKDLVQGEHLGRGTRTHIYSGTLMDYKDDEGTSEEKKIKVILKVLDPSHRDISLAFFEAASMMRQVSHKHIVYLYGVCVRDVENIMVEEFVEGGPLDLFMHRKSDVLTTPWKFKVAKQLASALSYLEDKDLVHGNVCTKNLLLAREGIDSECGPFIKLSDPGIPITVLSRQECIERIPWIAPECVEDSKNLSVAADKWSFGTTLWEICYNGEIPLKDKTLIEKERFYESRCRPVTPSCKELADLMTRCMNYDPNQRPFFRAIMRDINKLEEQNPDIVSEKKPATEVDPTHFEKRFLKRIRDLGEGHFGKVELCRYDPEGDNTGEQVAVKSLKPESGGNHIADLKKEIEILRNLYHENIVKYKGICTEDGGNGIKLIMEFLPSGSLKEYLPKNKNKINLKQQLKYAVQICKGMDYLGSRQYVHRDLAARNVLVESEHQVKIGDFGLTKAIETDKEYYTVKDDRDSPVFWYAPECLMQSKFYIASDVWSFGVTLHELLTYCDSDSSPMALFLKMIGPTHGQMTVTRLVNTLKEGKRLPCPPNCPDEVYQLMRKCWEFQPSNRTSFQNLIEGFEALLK
How it was run: as §1

[6] = selectivity: difference of pKi JAK3 and pKi JAK1
[7] = IL-2 stimulated pSTAT5 in Tall-1 T cells
[8] = selectivity JAK3 over JAK1, difference of pKi
[9] = TALL-1, IL-2 stimulated pSTAT5, Tall-1 T cells

Row | Compound | JAK 3 (pKi) [1] | JAK3 (pKi)-JAK1 (pKi) [1, 6] | Tall-1 (pIC50) [2, 7] | Tyk 2 (pKi) [3] | JAK 2 (pKi) [4] | JAK 1 (pKi) [5] | Ki [1] | JAK3 (pKi)-JAK1 (pKi) [1, 8] | IC50 [2, 9] | Ki [3] | Ki [4] | Ki [5] | IC50 ([2]; TALL-1, IL-2 stimulated pSTAT5 in Tall-1 T cells) | Tall-1 (pIC50) ([2]; IL-2 stimulated pSTAT5, Tall-1 T cells)
1 | CCC1(COc2nc(-c3ccc(O)c(Cl)c3)cc3[nH]ncc23)CN(C(=O)/C=C/CN(C)C)C1 [Compound 3-99] | A (a pKi value≥10 (Ki≤0.1 nM)) | A (a value of 3 or above) | A (a pIC50 value≥7.5 (IC50≤32 nM)) | E (a pKi value of 7 or below (Ki of 100 nM or above)) | E (a pKi value of 7 or below (Ki of 100 nM or above)) | E (a pKi value of 7 or below (Ki of 100 nM or above)) |  |  |  |  |  |  |  | 
2 | C=CC(=O)N1CCS(=O)(=O)C(C(=O)Nc2cc(-c3ccc(O)cc3)cc3[nH]ncc23)C1 (stereo not drawn) [Compound 12-45] |  |  |  |  |  |  | < 0.0001 µM | A (a value of 3 or above) | 0.2 to 1 µM | > 0.1 µM | > 0.1 µM | > 0.1 µM |  | 
3 | CN(C)C/C=C/C(=O)N1CC(F)(COc2nc(-c3ccc(O)c(Cl)c3)cc3[nH]ncc23)C1 [Compound 3-91] |  | A (a value of 3 or above) |  |  |  |  | < 0.0001 µM |  |  | > 0.1 µM | 0.01 to 0.1 µM | 0.01 to 0.1 µM | < 0.0316 µM | 
4 | C=CC(=O)N1CC[C@H](Oc2cc(-c3ccc(O)cc3)cc3[nH]ncc23)C[C@@H]1C [Compound 12-31] |  |  |  |  |  |  | < 0.0001 µM | A (a value of 3 or above) | 0.0316 to 0.2 µM | > 0.1 µM | 0.001 to 0.01 µM | > 0.1 µM |  | 
5 | C=CC(=O)N1CCC(N(C)c2cc(-c3ccc(O)cc3)cc3[nH]ncc23)CC1 [Compound 7-3] | B (a pKi value between 9 and 10 (Ki between 1 nM and 0.1 nM)) |  |  | E (a pKi value of 7 or below (Ki of 100 nM or above)) | E (a pKi value of 7 or below (Ki of 100 nM or above)) | E (a pKi value of 7 or below (Ki of 100 nM or above)) |  | A (a value of 3 or above) |  |  |  |  |  | B (a pIC50 value between 6.7 (included) and 7.5 (IC50 between 200 nM and 32 nM))
6 | C=CC(=O)N1CCC(Oc2cc(-c3ccc(O)cc3)cc3[nH]ncc23)CC1 [Compound 6-2] |  |  |  |  |  |  | < 0.0001 µM | B (a value of 2.3 to 3) | < 0.0316 µM | > 0.1 µM | 0.01 to 0.1 µM | 0.01 to 0.1 µM |  | 
7 | CN(C)C/C=C/C(=O)N1CC(CN(C)c2cc(-c3ccc(O)c(F)c3)cc3[nH]ncc23)C1 [Compound 4-6] | B (a pKi value between 9 and 10 (Ki between 1 nM and 0.1 nM)) | A (a value of 3 or above) | B (a pIC50 value between 6.7 (included) and 7.5 (IC50 between 200 nM and 32 nM)) | E (a pKi value of 7 or below (Ki of 100 nM or above)) | E (a pKi value of 7 or below (Ki of 100 nM or above)) | E (a pKi value of 7 or below (Ki of 100 nM or above)) |  |  |  |  |  |  |  | 
